Laboratory results reported in patent publication US20080242688A1, “Method 741” (ASTRAZENECA AB, priority 2007, published 2008).
Several values for one entry are separate records, joined by “and”; a condition that tells them apart may be missing. Equal values may be shown once.

What was measured:
[1] = Multiple dose PK/TK, rabbit; assay type: in vivo; conditions: day 18; for AUC / Cmax / Tmax: female, New Zealand White, in vivo, sc
Description: This section provides a summary of the pharmacokinetic and metabolism properties of AZD0328 derived from in vivo studies. […] The derived PK/TK parameters from these studies are presented in Table 4 for single dose studies (DMR4, 0619LR, 20030191PCR, DMO16, DMB10, DMW12, 50190, 0190DD and 03.330/1), and are presented in Table 5 multiple dose PK/TK studies (DMR4, 0612AR, DMB15, 50190, 0190DD and 0295AD).

[2] = Cardiovascular/ECG telemetry in dogs; assay type: in vivo; conditions: in vivo, dog, low dose group, read-out: total Cmax
Description: (§1) The cardiovascular effects of orally administered AZD0328 were assessed dogs implanted with telemetry transmitters (Table 3). The main purpose of the study was to evaluate effects on the QT interval of the ECG during a 7-days dosing period followed by 5 days of recovery, thus enabling assessment of any accumulation of effects and the recovery back to baseline. Systolic, diastolic and mean arterial blood pressure, heart rate, lead II ECG and core body temperature were recorded continuously. The PR, QRS and QT intervals of the ECG were measured, and the QT interval was corrected for changes in heart rate using the method of Van de Water (QTcV).

[3] = system: dogs; assay: Cardiovascular/ECG telemetry in dogs; assay type: in vivo; conditions: dog, oral
Description: as §1

[4] = biological target: serotonergic 5-HT3 receptor (Homo sapiens, UniProt P46098); assay: Selectivity panel, radioligand binding; conditions: read-out: inhibition of specific radioligand binding
Description: (§2) Secondary effects of AZD0328 on targets other than the α7 nicotinic acetylcholine receptor (nAChR) were investigated in vitro. Selectivity against a broad panel of 129 receptors, ion channels, nuclear hormone receptors, transporters and enzymes was tested using radioligand binding assays (Report no. GPW003).

[5] = biological target: adrenergic α2B receptor (Homo sapiens, UniProt P18089); assay: Selectivity panel, radioligand binding; conditions: read-out: inhibition of specific radioligand binding
Description: as §2

[6] = biological target: muscarinic M5 receptor (Homo sapiens, UniProt P08912); assay: Selectivity panel, radioligand binding; conditions: read-out: inhibition of specific radioligand binding
Description: as §2

[7] = biological target: muscarinic M3 receptor (Homo sapiens, UniProt P20309); assay: Selectivity panel, radioligand binding; conditions: read-out: inhibition of specific radioligand binding
Description: as §2

[8] = system: central nicotinic receptors; assay: Selectivity panel, radioligand binding; conditions: 10 μM
Description: as §2

[9] = CNS side effects in rhesus monkeys; conditions: rhesus monkey, in vivo, po, read-out: NOAEL for decreased spatial working memory performance and CNS side effects (oral movements)
Description: CNS side effects and decreased spatial working memory performance only occurred together in monkeys administered high dose AZD0328. The NOAEL for decreased spatial working memory performance and oral movements in rhesus monkeys was determined to be 0.016 mg/kg. Doses projected to produce therapeutic benefits in human subjects are those doses that were effective in functional assays across three species and were below the NOAEL for adverse effects on cognitive function and general behaviour in rhesus monkeys (<0.016 mg/kg). Doses projected to produce therapeutic benefits in human subjects therefore fall in the range 0.0001-0.01 mg/kg.

[10] = biological target: human recombinant α7 receptor (Homo sapiens, UniProt P36544); assay: Whole cell current activation kinetics, α7-HEK cells; assay type: cell-based; parameters: expressed in transfected cells; host or cells: Xenopus oocytes (mRNA injected)
[11] = Single oral dose pharmacokinetics in healthy human volunteers; assay type: in vivo; parameters: AUC/dose: unit not given beside the values; conditions: for Cmax / Tmax / AUC / AUC(0-t) / half-life: human, plasma; for Cmax / AUC / AUC(0-t) / half-life / Cmax/Dose / AUC/dose / CL/F: geometric mean; for Tmax: median
Description: Total oral doses of AZD0328 in the range 0.025-0.68 mg produced mean plasma concentrations of 0.6-15 nM, consistent with the range of plasma concentrations found to be associated with improved performance in the spatial delayed response test in monkeys. Total oral doses of AZD0328 in the range 0.005-2 mg produced mean plasma concentrations of 0.17-43.9 nM, within the range of plasma concentrations found to be associated with improved performance in rodent models.

[12] = rabbit 2F, DMB15, subcutaneous 1.15 mg/kg (3 μmol/kg)
[13] = rabbit 3F, DMB15, subcutaneous 0.115 mg/kg (0.3 μmol/kg)
[14] = rabbit 3F, DMB15, subcutaneous 0.269 mg/kg (0.7 μmol/kg)
[15] = rabbit 3F, DMB15, subcutaneous 0.384 mg/kg (1 μmol/kg)
[16] = rabbit 3F, DMB15, subcutaneous 3.84 mg/kg (10 μmol/kg)

adrenergic α2B receptor, sequence (P18089 whole entry): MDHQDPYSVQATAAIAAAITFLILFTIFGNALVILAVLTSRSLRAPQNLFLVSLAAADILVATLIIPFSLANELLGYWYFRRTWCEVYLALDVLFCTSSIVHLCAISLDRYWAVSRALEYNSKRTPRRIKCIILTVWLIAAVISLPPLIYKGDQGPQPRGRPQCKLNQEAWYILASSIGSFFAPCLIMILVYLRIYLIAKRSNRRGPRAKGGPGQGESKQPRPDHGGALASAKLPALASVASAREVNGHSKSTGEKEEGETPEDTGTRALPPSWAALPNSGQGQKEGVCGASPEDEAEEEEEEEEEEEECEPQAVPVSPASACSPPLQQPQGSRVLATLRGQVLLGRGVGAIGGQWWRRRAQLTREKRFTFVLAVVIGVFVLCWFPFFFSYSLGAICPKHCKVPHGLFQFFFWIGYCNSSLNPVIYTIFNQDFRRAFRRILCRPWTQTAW
muscarinic M3 receptor, sequence (P20309 whole entry): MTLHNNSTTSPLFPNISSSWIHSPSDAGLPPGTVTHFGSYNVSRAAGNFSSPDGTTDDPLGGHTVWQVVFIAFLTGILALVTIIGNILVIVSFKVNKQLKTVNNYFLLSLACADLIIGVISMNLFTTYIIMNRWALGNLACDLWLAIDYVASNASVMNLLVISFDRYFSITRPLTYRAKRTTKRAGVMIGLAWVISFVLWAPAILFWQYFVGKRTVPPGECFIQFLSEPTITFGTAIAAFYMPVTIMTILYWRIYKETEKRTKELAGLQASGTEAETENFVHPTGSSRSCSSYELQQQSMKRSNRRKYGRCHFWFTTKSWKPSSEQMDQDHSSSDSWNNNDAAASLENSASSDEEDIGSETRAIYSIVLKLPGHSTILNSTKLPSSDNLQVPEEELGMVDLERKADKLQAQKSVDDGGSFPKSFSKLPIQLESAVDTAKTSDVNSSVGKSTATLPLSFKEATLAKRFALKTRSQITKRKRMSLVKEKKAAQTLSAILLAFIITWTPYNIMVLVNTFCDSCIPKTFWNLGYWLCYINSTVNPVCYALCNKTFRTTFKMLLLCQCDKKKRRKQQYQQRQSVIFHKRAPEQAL
muscarinic M5 receptor, sequence (P08912 whole entry): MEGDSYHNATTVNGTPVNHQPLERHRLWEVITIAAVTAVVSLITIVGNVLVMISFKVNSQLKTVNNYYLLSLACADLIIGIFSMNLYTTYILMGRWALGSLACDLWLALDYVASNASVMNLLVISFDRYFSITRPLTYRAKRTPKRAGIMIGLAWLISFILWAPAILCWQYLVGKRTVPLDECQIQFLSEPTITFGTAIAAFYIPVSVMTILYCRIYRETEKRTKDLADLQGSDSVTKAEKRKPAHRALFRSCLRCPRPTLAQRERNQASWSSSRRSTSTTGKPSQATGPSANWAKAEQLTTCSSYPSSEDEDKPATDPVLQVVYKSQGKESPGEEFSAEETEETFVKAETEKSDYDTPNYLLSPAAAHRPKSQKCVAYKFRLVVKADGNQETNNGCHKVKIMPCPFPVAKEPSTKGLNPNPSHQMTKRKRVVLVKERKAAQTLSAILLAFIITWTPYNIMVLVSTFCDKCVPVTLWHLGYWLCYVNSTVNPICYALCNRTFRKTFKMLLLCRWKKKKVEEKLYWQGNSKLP
human recombinant α7 receptor, sequence (P36544 23-502): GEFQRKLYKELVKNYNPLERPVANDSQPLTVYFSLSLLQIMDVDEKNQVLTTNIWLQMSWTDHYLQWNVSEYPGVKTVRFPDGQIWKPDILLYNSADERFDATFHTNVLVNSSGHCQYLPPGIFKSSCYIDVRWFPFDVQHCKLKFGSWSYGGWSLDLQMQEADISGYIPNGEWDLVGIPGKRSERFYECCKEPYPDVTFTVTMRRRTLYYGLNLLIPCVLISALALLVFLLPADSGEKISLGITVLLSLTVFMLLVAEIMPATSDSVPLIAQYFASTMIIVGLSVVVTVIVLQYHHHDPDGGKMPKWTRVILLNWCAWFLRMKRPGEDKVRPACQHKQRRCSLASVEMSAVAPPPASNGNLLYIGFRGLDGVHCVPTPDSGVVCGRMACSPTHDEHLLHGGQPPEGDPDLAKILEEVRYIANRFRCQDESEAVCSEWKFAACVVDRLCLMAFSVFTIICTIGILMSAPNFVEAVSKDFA
serotonergic 5-HT3 receptor, sequence (P46098 24-478): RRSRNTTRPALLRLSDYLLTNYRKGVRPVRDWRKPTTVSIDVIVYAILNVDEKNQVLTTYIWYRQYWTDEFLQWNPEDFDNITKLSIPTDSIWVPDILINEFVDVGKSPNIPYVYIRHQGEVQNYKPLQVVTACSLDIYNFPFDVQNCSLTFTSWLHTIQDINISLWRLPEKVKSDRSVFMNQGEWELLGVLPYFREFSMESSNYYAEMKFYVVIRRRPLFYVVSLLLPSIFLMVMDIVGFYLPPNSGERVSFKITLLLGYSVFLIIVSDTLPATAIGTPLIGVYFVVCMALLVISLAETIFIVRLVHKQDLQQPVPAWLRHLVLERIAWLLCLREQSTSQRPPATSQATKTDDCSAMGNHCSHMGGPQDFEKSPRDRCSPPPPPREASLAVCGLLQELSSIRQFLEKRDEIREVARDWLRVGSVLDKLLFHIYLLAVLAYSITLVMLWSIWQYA

In the case of `c1cnc2c(c1)C[C@@]1(CN3CCC1CC3)O2` [AZD0328, (R)-Spiro[1-azabicyclo[2.2.2]octane-3,2′(3′H)-furo[2,3-b]pyridine]], the AUC [1, 12] is reported as 636 ng·h/mL to 846 ng·h/mL and 2.9 µM·h to 3.9 µM·h, the Cmax [1, 12] is reported as 224 ng/mL to 296 ng/mL and 1.04 µM to 1.37 µM and the Tmax [1, 12] is reported as 0.3 to 1 h. For the same molecule, the AUC [1, 13] was 50.2 ng·h/mL and 0.205 µM·h, the Cmax [1, 13] was 24.7 ng/mL and 111 nM and the Tmax [1, 13] was 0.317 to 0.97 h. For the same molecule, the AUC [1, 14] was 0.872 µM·h, the Cmax [1, 14] was 138 ng/mL and 583 nM and the Tmax [1, 14] was 0.217 to 0.483 h. The AUC [1, 15] was 232 ng·h/mL and 1.01 µM·h, the Cmax [1, 15] was 78.1 ng/mL and 317 nM and the Tmax [1, 15] was 0.25 to 2.02 h. The AUC [1, 16] was 2510 ng·h/mL and 11.6 µM·h, the Cmax [1, 16] was 677 ng/mL and 3.13 µM and the Tmax [1, 16] was 0.483 to 2.18 h. The AUC/dose [1, 12] was 0.212-0.282, the AUC/dose [1, 13] was 0.148 ± 0.038 and the AUC/dose [1, 14] was 0.270 ± 0.106. It also gave an AUC/dose [1, 16] of 0.251 ± 0.129, a Cmax ([2]; oral, day 7 (lowest)) of 800 nM and a Cmax ([2]; po, day 4) of 1500 nM. The “single dose followed by frequent vomiting” value [3] was 17.3 mg/kg and 34.6 mg/kg, the inhibition at 10 µM [4] was greater than 50% and the inhibition at 10 µM [5] was greater than 50%. The inhibition at 10 µM [6] was greater than 50%, the inhibition at 10 µM [7] was greater than 50% and the “inhibition of specific radioligand binding” value [8] was greater than 50%. The NOAEL [9] was 0.016 mg/kg, the “10-90% rise time, whole cell current” value [10] was 1.5 ms and the Cmax ([11]; single oral dose 0.005 mg) was 0.17 nM. It also gave a Tmax ([11]; single oral dose 0.005 mg) of 0.8 h, an AUC ([11]; single oral dose 0.025 mg) of 0.0061 µM·h and an AUC(0-t) ([11]; single oral dose 0.025 mg) of 0.0046 µM·h. It also gave a Cmax ([11]; single oral dose 0.025 mg) of 0.6 nM, a half-life ([11]; single oral dose 0.025 mg) of 6.3 h and a Tmax ([11]; single oral dose 0.025 mg) of 1.3 h. For the same molecule, the AUC ([11]; single oral dose 0.075 mg) was 0.0169 µM·h, the AUC(0-t) ([11]; single oral dose 0.075 mg) was 0.0156 µM·h and the Cmax ([11]; single oral dose 0.075 mg) was 2.1 nM. For the same molecule, the half-life ([11]; single oral dose 0.075 mg) was 5.9 h, the Tmax ([11]; single oral dose 0.075 mg) was 1.5 h and the AUC ([11]; single oral dose 0.23 mg) was 0.0652 µM·h. For the same molecule, the AUC(0-t) ([11]; single oral dose 0.23 mg) was 0.0588 µM·h, the Cmax ([11]; single oral dose 0.23 mg) was 6.4 nM and the half-life ([11]; single oral dose 0.23 mg) was 6.7 h. The Tmax ([11]; single oral dose 0.23 mg) was 1.5 h, the AUC ([11]; single oral dose 0.68 mg) was 0.144 µM·h and the AUC(0-t) ([11]; single oral dose 0.68 mg) was 0.133 µM·h. It also gave a Cmax ([11]; single oral dose 0.68 mg) of 15 nM, a half-life ([11]; single oral dose 0.68 mg) of 6 h and a Tmax ([11]; single oral dose 0.68 mg) of 2.2 h. It also gave an AUC ([11]; single oral dose 1.35 mg) of 0.333 µM·h, an AUC(0-t) ([11]; single oral dose 1.35 mg) of 0.3 µM·h and a Cmax ([11]; single oral dose 1.35 mg) of 31 nM. For the same molecule, the half-life ([11]; single oral dose 1.35 mg) was 6.9 h, the Tmax ([11]; single oral dose 1.35 mg) was 3.2 h and the AUC ([11]; single oral dose 2 mg) was 0.421 µM·h. The AUC(0-t) ([11]; single oral dose 2 mg) was 0.395 µM·h, the Cmax ([11]; single oral dose 2 mg) was 43.9 nM and the half-life ([11]; single oral dose 2 mg) was 5.6 h. The Tmax ([11]; single oral dose 2 mg) was 2.5 h, the Cmax/Dose ([11]; single oral dose 0.005 mg) was 0.007 and the AUC/dose ([11]; single oral dose 0.025 mg) was 0.053. For the same molecule, the CL/F ([11]; single oral dose 0.025 mg) was 19.0 L/h, the Cmax/Dose ([11]; single oral dose 0.025 mg) was 0.006 and the AUC/dose ([11]; single oral dose 0.075 mg) was 0.049. The CL/F ([11]; single oral dose 0.075 mg) was 20.5 L/h, the Cmax/Dose ([11]; single oral dose 0.075 mg) was 0.006 and the AUC/dose ([11]; single oral dose 0.23 mg) was 0.061. For the same molecule, the CL/F ([11]; single oral dose 0.23 mg) was 16.3 L/h, the Cmax/Dose ([11]; single oral dose 0.23 mg) was 0.006 and the AUC/dose ([11]; single oral dose 0.68 mg) was 0.046. It also gave a CL/F ([11]; single oral dose 0.68 mg) of 21.9 L/h, a Cmax/Dose ([11]; single oral dose 0.68 mg) of 0.005 and an AUC/dose ([11]; single oral dose 1.35 mg) of 0.054. The CL/F ([11]; single oral dose 1.35 mg) was 18.7 L/h, the Cmax/Dose ([11]; single oral dose 1.35 mg) was 0.005 and the AUC/dose ([11]; single oral dose 2 mg) was 0.046. The CL/F ([11]; single oral dose 2 mg) was 22.0 L/h, the Cmax/Dose ([11]; single oral dose 2 mg) was 0.005 and the mean plasma concentrations ([11]; total oral doses 0.005-2 mg) was 0.17 to 43.9 nM. For the same molecule, the mean plasma concentrations ([11]; total oral doses 0.025-0.68 mg) was 0.6 to 15 nM.
